Source: PMC9234963, “Optimizing Shape Complementarity Enables the Discovery of Potent Tricyclic BCL6 Inhibitors” (Journal of Medicinal Chemistry, 2022)
Values joined by “and” are separate entries in the source; they are usually repeats but may differ in a detail not shown here. Identical values can stand only once. Like-named read-outs stand apart in the source and are kept apart here.

Tests used:
human BCL6 BTB domain = human BCL6 BTB domain (Homo sapiens, UniProt P41182); experiment: biochemical; details: for BCL6 TR-FRET mean pIC50: mean of replicates
Source text: 6. Supplementary tables … S-17
Table S1: summary statistics and individual replicate values … S-17 […]
1. Supplementary experimental: protein production, purification and crystallography 1.1 BCL6 constructs used for assays and crystallography
A first construct of BCL6 BTB domain, which we will refer to as Trx-6His-HRV3C-BCL6, was obtained […]
3C protease cleavage site. For the TR-FRET assay, the Trx-6His-HRV3C-BCL6 protein construct was […]
used without cleaving the tag, as a 6His was needed to bind to the anti-6His-Terbium antibody. […]
For both plasmid constructs described above, transformed BL21-AI E. coli cells were grown in LB […]
carried out at 18 °C for 18 hours. Cells were harvested by centrifugation (5500 g for 30 minutes at 4 […]
oC) and stored at -80 °C.
2. Supplementary experimental: biological assay conditions
IC50 values were determined using […]
a sigmoidal four-parameter logistic fit equation.
Individual replicates shown in supplementary

OCI-Ly1 = experiment: Cell proliferation assay (14 days, CellTiter Glo), OCI-Ly1; type: cell-based; details: Homo sapiens, BCL6-high line
Description: (§1) After a short centrifugation the plates
(§2) The % inhibition at each test
(§3) 2.3 Cell proliferation assay
(§4) Compounds were initially dispensed into 96- […]
(§5) medium and transferred onto the cells.
(§6) The volume of medium containing 2500 cells in the control well was calculated and this volume of cells was transferred from every well of the assay plates to the corresponding well of the fresh plates containing compound. After 14 days, CellTiter Glo reagent (Promega) was added to the medium in each well of the assay plate at a ratio of 1:2, mixed on a plate shaker, then incubated at room temperature for 10 minutes. Luminescence was measured using an Envision plate reader (Perkin Elmer) and the relative luminescence at each compound concentration, compared to DMSO alone, was calculated. GI50 were determined using a 4-parameter curve fit in Dotmatics (Bishops Stortford, UK).

Karpas 422 = experiment: Cell proliferation assay (14 days, CellTiter Glo), Karpas 422; type: cell-based; details: Homo sapiens, KARPAS-422, read-out: Karpas 422 GI50, BCL6-high line
Description: as §1, §2, §3, §4, §5, §6

OCI-Ly3 = experiment: Cell proliferation assay (14 days, CellTiter Glo), OCI-Ly3; type: cell-based; details: Homo sapiens, BCL6-low line
Description: as §1, §2, §3, §4, §5, §6

[1] = HPLC kinetic solubility assay; type: physicochemical; details: kinetic solubility by HPLC, 10 mM phosphate-buffered saline pH 7.4, 1% DMSO
Description: 3.2 HPLC solubility assay
DMSO. Following shaking of the suspension on a Bohdan Shaker at 500 rpm for 2 hours at room […]
200 µL of the supernatant was transferred to a 2 mL Agilent vial containing 50 µL of DMSO (Sigma […]
detection using an external standard which was prepared by pipetting 10 µL of the same batch of […]
The detail of the HPLC method is as following: chromatographic separation at 30°C is carried out over a 5 minute gradient elution method from 90:10 to 10:90 water:methanol (both modified with 0.1% formic acid) at a flow rate of 1.5 mL/min. Calibration curve is prepared by injecting 0.5, 2.5, and 5 µL of compound external standard.
62.5 µL of compound solubility sample. […]

[2] = cited from earlier work
PAMPA permeability = details: pH 7.4
[3] = read-out: BCL6 TR-FRET IC50, geometric mean of replicates
[4] = read-out: BCL6 TR-FRET IC50 individual replicates, single replicates, 10 nM BCL6 for early examples, else 1 nM

SMILES	IC50 (human BCL6 BTB domain; BCL6 TR-FRET IC50 individual replicates, single replicates, 10 nM BCL6 for early examples, else 1 nM)	BCL6 TR-FRET mean pIC50 (human BCL6 BTB domain)	IC50 (human BCL6 BTB domain; read-out: BCL6 TR-FRET IC50, Figure 1)	IC50 (human BCL6 BTB domain; [3])	IC50 (human BCL6 BTB domain; [4])	GI50 (OCI-Ly1)	GI50 (Karpas 422)	GI50 (OCI-Ly3)	Aq. Sol [1]	passive permeability [2]	PAMPA Pe (7.4) (PAMPA permeability)
Cn1c(=O)c2c(c3cc(Nc4ccnc(Cl)c4C#N)ccc31)N[C@@H](C1CC1)C(F)(F)CO2 [Compound 1, (S)-2-Chloro-4-((2-cyclopropyl-3,3-difluoro-7-methyl-6-oxo-1,2,3,4,6,7-hexahydro-[1,4]oxazepino[2,3-c]quinolin-10-yl)amino)nicotinonitrile]	2.9 nM (3×) and 2.4 nM and 16.2 nM	8.40 and 8.41	4 nM and 3.9 nM	3.9 nM	3.9 nM	170 nM	190 nM	3400 nM	–	–	–
Cn1c(=O)cc(NC(C)(C)c2ncc(C3CC3)cn2)c2cc(Nc3ccnc(Cl)c3C#N)ccc21 [Compound 3]	–	7.58	–	26 nM	25.5 nM and 33.1 nM and 41 nM and 22.6 nM and 15.6 nM	–	3320 nM	–	31 µM	high	35 × 10^–6 cm s^–1
